Data taken from patent US6642392B1 (priority 1997, dated 2003).
Where two headings read alike, the source gives them in different places.

Experiments:
Format in all cases: in vivo
Puccinia recondita = test: Test B: wheat leaf rust, preventive spray on wheat seedlings; conditions: for Test B disease control rating (100 = 100% disease control, 0 = no disease control): wheat seedlings sprayed to run-off, inoculated the following day, rating relative to controls, unmarked compounds (standard test rate); for Test B disease control rating: wheat leaf rust
Procedure, shortened: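 Preventive test: P. recondita spores were applied one day after a run-off spray of compound suspension on wheat seedlings. Plants had 24 h at 20 °C in saturated air plus 6 days in a 20 °C growth chamber. Scoring is % disease control (100 = full) relative to controls.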

[1] = tested on: Eiysiphe graminis f. sp. tritici; test: Test A: wheat powdery mildew, preventive spray on wheat seedlings; conditions: for Test A disease control rating (100 = 100% disease control, 0 = no disease control): wheat seedlings sprayed to run-off, inoculated the following day, rating relative to controls, unmarked compounds (standard test rate); for Test A disease control rating: wheat powdery mildew
Procedure, shortened: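 Preventive test: seedlings inoculated with powdery mildew spores one day after run-off spraying of a suspension. Ratings after 7 days in a 20° C growth chamber express percent disease control versus controls.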

Pyricularia oryzae = conditions: for Test C disease control rating (100 = 100% disease control, 0 = no disease control): rice seedlings sprayed to run-off, inoculated the following day, rating relative to controls, unmarked compounds (standard test rate); for Test C disease control rating: rice blast
Phytophthora infestans = conditions: for Test D disease control rating (100 = 100% disease control, 0 = no disease control): tomato seedlings sprayed to run-off, inoculated the following day, rating relative to controls, unmarked compounds (standard test rate); for Test D disease control rating: tomato late blight
Botrytis cinerea = test: Test E: gray mold, preventive spray on cucumber seedlings; conditions: for Test E disease control rating (100 = 100% disease control, 0 = no disease control): cucumber seedlings sprayed to run-off, inoculated the following day, rating relative to controls, unmarked compounds (standard test rate); for Test E disease control rating: gray mold on cucumber
Procedure, shortened: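 Preventive spray on cucumber seedlings used a suspension (3% acetone, 250 ppm Trem 014), applied to run-off one day before inoculation with Botrytis cinerea spores. Plants were held 48 h at 20° C in saturated air, then 5 days at 20° C. Percent disease control was scored relative to untreated plants.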

[2] = 100 = 100% disease control, 0 = no control, unmarked entries (standard test concentration)
[3] = 100 = 100% disease control, 0 = no control relative to controls, unmarked entries (standard test concentration)

Row | Compound | Test B disease control rating (Puccinia recondita; [2]) [%] | Test A disease control rating [1, 3] [%] | Test C disease control rating (Pyricularia oryzae; [2]) [%] | Test D disease control rating (Phytophthora infestans; [2]) [%] | Test E disease control rating (Botrytis cinerea; [2]) [%] | also measured
1 | CCC1(C(=O)NCC(C)=Cc2ccccc2)C(C)C1(Cl)Cl (centres unmarked) [compound 265] | – | – | – | – | – | Test B disease control rating (100 = 100% disease control, 0 = no disease control) (Puccinia recondita): 0%; Test A disease control rating (100 = 100% disease control, 0 = no disease control) [1]: 77%; Test C disease control rating (100 = 100% disease control, 0 = no disease control) (Pyricularia oryzae): 91%; Test D disease control rating (100 = 100% disease control, 0 = no disease control) (Phytophthora infestans): 96%; Test E disease control rating (100 = 100% disease control, 0 = no disease control) (Botrytis cinerea): 0%
2 | CCC1(C(=O)NC(C)COn2c(C#N)cc(Br)c2C)C(C)C1(Cl)Cl (mixture of isomers) [compound 141] | 68 | 38 | 74 | 84 | 0 | –
3 | CC(C)(C)C(C#N)C(=O)NC/C=C/c1ccc(Cl)cc1Cl (racemic) [compound 274] | – | – | – | – | – | Test B disease control rating (100 = 100% disease control, 0 = no disease control) (Puccinia recondita): 28%; Test A disease control rating (100 = 100% disease control, 0 = no disease control) [1]: 61%; Test C disease control rating (100 = 100% disease control, 0 = no disease control) (Pyricularia oryzae): 74%; Test D disease control rating (100 = 100% disease control, 0 = no disease control) (Phytophthora infestans): 23%; Test E disease control rating (100 = 100% disease control, 0 = no disease control) (Botrytis cinerea): 58%
4 | C[C@H](COc1ccc(F)cc1Br)NC(=O)C(C#N)C(C)(C)C (single isomer, unassigned) [165a] | 0 | 86 | 74 | 23 | 86 | –
5 | CC(C)(C)C(C#N)C(=O)NCCCc1ccccc1 (racemic) [compound 54] | 11 | 34 | 32 | 0 | 16 | –
6 | CC(C)C(C#N)C(=O)NC(C)C(Oc1ccccc1C#N)c1ccccc1 (mixture of isomers) [compound 290] | – | – | – | – | – | Test B disease control rating (100 = 100% disease control, 0 = no disease control) (Puccinia recondita): 0%; Test A disease control rating (100 = 100% disease control, 0 = no disease control) [1]: 59%; Test C disease control rating (100 = 100% disease control, 0 = no disease control) (Pyricularia oryzae): 90%; Test D disease control rating (100 = 100% disease control, 0 = no disease control) (Phytophthora infestans): 0%; Test E disease control rating (100 = 100% disease control, 0 = no disease control) (Botrytis cinerea): 0%
7 | Cc1c(Br)cc(C#N)n1OCC(C)NC(=O)C(C#N)C(C)(C)C (mixture of isomers) [compound 50] | 28 | 86 | 53 | 57 | 0 | –
8 | CC(CCn1cc(Cl)cc1C#N)NC(=O)C(C#N)C(C)C(C)(C)C (mixture of isomers) [compound 74] | 86 | 0 | 53 | 23 | 0 | –
9 | C[C@H](COc1c(Cl)ccc(Cl)c1Cl)NC(=O)C(C#N)C(C)(C)C (single isomer, unassigned) [171b] | 0 | 91 | 53 | 0 | 58 | –
10 | CCC1(C(=O)NC(C)COc2ccccc2Br)C(C)C1(Cl)Cl (mixture of isomers) [84a] | – | – | – | – | – | Test B disease control rating (Puccinia recondita; tested at 40 ppm): 0%; Test A disease control rating ([1]; tested at 40 ppm): 29%; Test C disease control rating (Pyricularia oryzae; tested at 40 ppm): 0%; Test D disease control rating (Phytophthora infestans; tested at 40 ppm): 20%; Test E disease control rating (Botrytis cinerea; tested at 40 ppm): 0%
11 | Cc1cccc(OCC(C)NC(=O)C(C#N)C(C)(C)C)c1 (mixture of isomers) [compound 176] | 0 | 77 | 94 | 56 | 6 | –
12 | CCC1(C(=O)NC(C)COc2c(F)cccc2F)C(C)C1(Cl)Cl (mixture of isomers) [105a] | 0 | 0 | 53 | 0 | 55 | –
13 | C[C@H](COc1cc(F)cc(F)c1Cl)NC(=O)C(C#N)C(C)(C)C (single isomer, unassigned) [169a] | 27 | 84 | 91 | 24 | 0 | –
14 | C[C@H](COc1cc(Cl)ccc1Cl)NC(=O)C(C#N)C(C)(C)C (single isomer, unassigned) [33b] | 67 | 0 | 100 | 80 | 0 | –
15 | C[C@H](COc1ccc(Cl)cc1)NC(=O)C(C#N)C(C)(C)C (single isomer, unassigned) [7d] | 68 | 62 | 99 | 0 | 6 | –
16 | C[C@H](COc1ccccc1C#N)NC(=O)C(C#N)C(C)(C)C (single isomer, unassigned) [13b] | 0 | 0 | 86 | 4 | 83 | –
17 | CCC1(C(=O)NC(C)COc2ccc(Cl)cc2)C(C)C1(Cl)Cl (mixture of isomers) [83a] | – | – | – | – | – | Test B disease control rating (Puccinia recondita; tested at 40 ppm): 0%; Test A disease control rating ([1]; tested at 40 ppm): 0%; Test C disease control rating (Pyricularia oryzae; tested at 40 ppm): 32%; Test D disease control rating (Phytophthora infestans; tested at 40 ppm): 0%; Test E disease control rating (Botrytis cinerea; tested at 40 ppm): 0%
18 | CC(COc1ccc(Br)cc1)NC(=O)C(C#N)C(C)(C)C (single isomer, unassigned) [10b] | 67 | 62 | 86 | 95 | 0 | –
19 | CC(C=Cc1ccc(F)cc1F)NC(=O)C(C#N)C(C)(C)C (mixture of isomers) [compound 309] | – | – | – | – | – | Test B disease control rating (100 = 100% disease control, 0 = no disease control) (Puccinia recondita): 0%; Test A disease control rating (100 = 100% disease control, 0 = no disease control) [1]: 86%; Test C disease control rating (100 = 100% disease control, 0 = no disease control) (Pyricularia oryzae): 91%; Test D disease control rating (100 = 100% disease control, 0 = no disease control) (Phytophthora infestans): 23%; Test E disease control rating (100 = 100% disease control, 0 = no disease control) (Botrytis cinerea): 0%
20 | Cc1c(Br)cc(C#N)n1OCC(C)NC(=O)C(C#N)C(C)C(C)(C)C (mixture of isomers) [compound 70] | 0 | 63 | 0 | 13 | 0 | –
21 | C=C(F)C(C)(C)C(C#N)C(=O)NC(C)COc1cc(F)ccc1Cl (mixture of isomers) [compound 223] | – | – | – | – | – | Test B disease control rating (100 = 100% disease control, 0 = no disease control) (Puccinia recondita): 28%; Test A disease control rating (100 = 100% disease control, 0 = no disease control) [1]: 62%; Test C disease control rating (100 = 100% disease control, 0 = no disease control) (Pyricularia oryzae): 100%; Test D disease control rating (100 = 100% disease control, 0 = no disease control) (Phytophthora infestans): 41%; Test E disease control rating (100 = 100% disease control, 0 = no disease control) (Botrytis cinerea): 0%
22 | C[C@H](COc1cccc(Cl)c1Cl)NC(=O)C(C#N)C(C)(C)C (single isomer, unassigned) [31a] | 68 | 62 | 74 | 51 | 0 | –
